The experiment addresses T1, Human ATX protein (Homo sapiens, UniProt Q13822).
T1 construct: made in house
Put plainly: ATX biochemical FRET assay with FS-3 substrate. To be noted: FS-3 substrate 2 μM, ATX 1.0 μg/mL, 30 min preincubation, 2 hours at room temperature. From the text: ATX (Autotaxin) is a 125 KDa glycoprotein with lysophospholipase D (LPLD) activity that generates the bioactive lipid lysophosphatidic acid (LPA) from lysophosphatidylcholine (LPC). The ATX biochemical assay utilizes a FRET (fluorescence resonance energy transfer) technology platform. The fluorescence signal of FRET substrate FS-3 is quenched due to intra-molecular FRET of a fluorophore to a non-fluorescing quencher (Ferguson, C. G., et al., Org Lett. 2006 May 11; 8(10): 2023-2026, which is incorporated by reference in its entirety). ATX catalyzes the hydrolysis of the substrate which separates the dabsyl quencher from the fluorescein reporter, which becomes fluorescent. The reaction is monitored by a SpectraMax M5 (Molecular Devices, Sunnyvale, Calif.) with at excitation wavelength 485 nm and emission wavelength […].
Fatty acid free-BSA (Sigma A8806): 10 mg/mL in H2O, stored at 4° C.
2×ATX assay buffer: 100 mM Tris, 280 mM NaCl, 10 mM KCl, 2 mM CaCl2, 2 mM MgCl2, pH 7.4.
Human ATX protein: expressed and purified in house. Stored at −80° C.
Substrate FS-3 (Echelon, L-2000): 100 μg in 77.74.L H2O (1 mM stock), stored at −20° C.
384-well flat bottom plates—Corning #3575.
Compound dilution—All compounds were provided at 10 mM in 100% DMSO. In the first well, 2 μL of 10 mM compound was added to 78 μL of DMSO (1:40 dilution). In subsequent wells 3-fold dilution (total 10 dilutions) were performed.
1×ATX assay buffer was made up with a final concentration of 1 mg/mL fatty acid free-BSA using 2×ATX assay buffer, 10 mg/ml fatty acid free-BSA and ddH2O.
ATX protein was diluted with 1×ATX assay buffer to a concentration of 1.32 μg/mL (1.32×). 38 μL was added per well to the assay plate. The final concentration of ATX in the reaction as 1.0 μg/mL.
2 μL per well of compounds was transferred to provide the desired concentration. The plate was centrifuged, then incubated at room temperature for 30 minutes on the shaker.
FS-3 was diluted with 1×ATX assay buffer to a concentration of FS-3 of 10 μM (5×). Then, 10 μL was added per well to the assay plate. The final concentration of FS-3 in the reaction was 2 μM. The plate was centrifuged. The plate was kept shaking at room temperature for 2 hours. Because FS-3 substrate is light sensitive, plates were kept covered and protected from light.
Fluorescence was measured using SpectraMax M5 (excitation at 485 nm/emission at 538 nm, top read).

From patent US9555050B2 (BIOGEN MA INC., priority 2012, dated 2017) come the findings set out here.

In general, IC50 refers to the point on the concentration scale where inhibition reaches its midpoint. Read a high IC50 as a need for much substance. `NC1(C(=O)O)CCN(Cc2ccc3c(C(F)(F)F)c(O[C@H]4CC[C@@H](C(F)(F)F)CC4)ccc3c2)C1` (relative stereo) [Example 78, 1-((5-(trifluoromethyl)-6-((cis-4-(trifluoromethyl)cyclohexyl)oxy)-naphthalen-2-yl)methyl)-3-aminopyrrolidine-3-carboxylic acid]: the IC50 was ≤ 500 nM. The result for `O=C(O)C1CC(O)CN(Cc2ccc3c(C(F)(F)F)c(O[C@H]4CC[C@@H](C(F)(F)F)CC4)ccc3c2)C1` (relative stereo) [Example 81, 1-((5-(trifluoromethyl)-6-(cis-4-(trifluoromethyl)cyclohexyloxy)naphthalene-2-yl)methyl)-5-hydroxypiperidine-3-carboxylic acid] reads ≤ 250 nM. As to `CC(C)CC(NC1CC(C(=O)O)C1(C)C)c1ccc2c(C(F)(F)F)c(O[C@H]3CC[C@@H](C)CC3)ccc2c1` (relative stereo) [Example 90, 2,2-dimethyl-3-(1-(6-((cis)-4-methylcyclohexyloxy)-5-(trifluoromethyl)naphthalen-2-yl)-3-methylbutylamino)cyclobutanecarboxylic acid], the IC50 was ≤ 500 nM. Under `CC(c1ccc2c(C(F)F)c(O[C@H]3CC[C@@H](C)CC3)ccc2c1)N1CC(CC(=O)O)C1` (relative stereo) [Example 98, 1-(1-(5-(Difluoromethyl)-6-((cis-4-methylcyclohexyl)oxy)naphthalen-2-yl)ethyl)azetidine-3-acetic acid] stands ≤ 100 nM; under `CCC(c1ccc2c(C(F)F)c(O[C@H]3CC[C@@H](C)CC3)ccc2c1)N1CC(CC(=O)O)C1` (relative stereo) [Example 99, 1-(1-(5-(Difluoromethyl)-6-((cis-4-methylcyclohexyl)oxy)naphthalen-2-yl)propyl)azetidine-3-acetic acid], ≤ 100 nM.

`O=C(O)C1CCC(NCc2ccc3c(C(F)(F)F)c(O[C@H]4CC[C@@H](C(F)(F)F)CC4)ccc3c2)C1` (single isomer, unassigned) [Example 3b, 3-(((5-(trifluoromethyl)-6-((cis-4-(trifluoromethyl)cyclohexyl)oxy)-naphthalen-2-yl)methyl)amino)cyclopentanecarboxylic acid]: the IC50 was ≤ 500 nM. Under `CC1(C)C(NCc2ccc3c(C(F)(F)F)c(O[C@H]4CC[C@@H](C(F)(F)F)CC4)ccc3c2)CC1C(=O)O` (stereo partly drawn) [Example 1, 2,2-dimethyl-3-(((5-(trifluoromethyl)-6-((cis-4-(trifluoromethyl)cyclo-hexyl)oxy)naphthalen-2-yl)methyl)amino)cyclobutanecarboxylic acid] stands ≤ 500 nM; under `O=C(O)C1CCN(Cc2ccc3c(C(F)(F)F)c(O[C@H]4CC[C@@H](C(F)(F)F)CC4)ccc3c2)CC1` [Example 2, 1-((5-(trifluoromethyl)-6-((cis-4-(trifluoromethyl)cyclohexyl)oxy)-naphthalen-2-yl)methyl)piperidine-4-carboxylic acid], ≤ 500 nM.

On to `O=C(O)C[C@H]1CCCN(Cc2ccc3c(C(F)(F)F)c(OC4CCC(F)(F)CC4)ccc3c2)C1` [Example 4, (R)-2-(1-((6-((4,4-difluorocyclohexyl)oxy)-5-(trifluoromethyl)naphthalen-2-yl)methyl)piperidin-3-yl)acetic acid], for which the IC50 is ≤ 500 nM. Regarding `FC(F)(F)c1c(O[C@H]2CC[C@@H](C(F)(F)F)CC2)ccc2cc(CN3CCC(c4nn[nH]n4)CC3)ccc12` [Example 5, 4-(2H-tetrazol-5-yl)-1-((5-(trifluoromethyl)-6-((cis-4-(trifluoromethyl)cyclohexyl)oxy)naphthalen-2-yl)methyl)piperidine], the IC50 was ≤ 250 nM. As to `CC[C@H]1CC[C@@H](Oc2ccc3cc(C(C)N4CCC[C@H](CC(=O)O)C4)ccc3c2C(F)(F)F)CC1` (stereo partly drawn) [Example 6, 2-((3R)-1-(1-(6-((cis-4-ethylcyclohexyl)oxy)-5-(trifluoromethyl)naphthalen-2-yl)ethyl)piperidin-3-yl)acetic acid], the IC50 is ≤ 100 nM.

Turning to `CCC(c1ccc2c(C(F)(F)F)c(O[C@H]3CC[C@@H](CC)CC3)ccc2c1)N1CCC[C@H](CC(=O)O)C1` (stereo partly drawn) [Example 7, 2-((3R)-1-(1-(6-((cis-4-ethylcyclohexyl)oxy)-5-(trifluoromethyl)naphthalen-2-yl)propyl)piperidin-3-yl)acetic acid], the IC50 was ≤ 100 nM. Consider `C[C@H]1CC[C@@H](Oc2ccc3cc(CN4CCOC(CC(=O)O)C4)ccc3c2C(F)(F)F)CC1` (stereo partly drawn) [Example 8], for which the IC50 was ≤ 500 nM.

For `C[C@H]1CC[C@@H](Oc2ccc3cc(CN4CCCC(CC(=O)O)C4)ccc3c2C(F)(F)F)CC1` (stereo partly drawn) [Example 9, 2-(1-((6-((cis-4-methylcyclohexyl)oxy)-5-(trifluoromethyl)naphthalen-2-yl)methyl)piperidin-3-yl)acetic acid], the IC50 is ≤ 250 nM. `CCC(c1ccc2c(C(F)(F)F)c(O[C@H]3CC[C@@H](C)CC3)ccc2c1)N1CCC[C@H](CC(=O)O)C1` (stereo partly drawn) [Example 10, 2-((3R)-1-(1-(6-((cis-4-Methylcyclohexyl)oxy)-5-(trifluoromethyl)naphthalen-2-yl)propyl)piperidin-3-yl)acetic acid]: the IC50 is ≤ 100 nM. The result for `C[C@H]1CC[C@@H](Oc2ccc3cc(C(C(=O)O)N4CCC(C(=O)O)CC4)ccc3c2C(F)(F)F)CC1` (stereo partly drawn) [Example 11, 1-(Carboxy(6-((cis-4-methylcyclohexyl)oxy)-5-(trifluoromethyl)naphthalen-2-yl)methyl)piperidine-4-carboxylic acid] reads ≤ 500 nM. Under `C[C@H]1CC[C@@H](Oc2ccc3cc(C(N4CCC(C(=O)O)CC4)C(F)(F)F)ccc3c2C(F)(F)F)CC1` (stereo partly drawn) [Example 12, 1-(2,2,2-Trifluoro-1-(6-((cis-4-methylcyclohexyl)oxy)-5-(trifluoromethyl)naphthalen-2-yl)ethyl)piperidine-4-carboxylic acid] stands ≤ 500 nM. On to `C[C@H]1CC[C@@H](Oc2ccc3cc(CN4CCC(C(=O)O)CC4)ccc3c2C(F)F)CC1` [Example 13, 1-((5-(Difluoromethyl)-6-((cis-4-methylcyclohexyl)oxy)naphthalen-2-yl)methyl)piperidine-4-carboxylic acid], for which the IC50 is ≤ 100 nM. `O=C(O)C[C@H]1CCCN(Cc2ccc3c(C(F)(F)F)c(O[C@H]4CC[C@@H](C(F)(F)F)CC4)ccc3n2)C1` [Example 14, 2-((R)-1-(((5-(trifluoromethyl)-6-(cis-4-(trifluoromethyl)cyclohexyl)oxy)quinolin-2-yl)methyl)piperidin-3-yl)acetic acid]: the IC50 was ≤ 250 nM. As for `CC(NC1CC(C(=O)O)C1(C)C)c1ccc2c(C(F)(F)F)c(O[C@H]3CC[C@@H](C(F)(F)F)CC3)ccc2n1` (stereo partly drawn) [Example 15, 2,2-dimethyl-3-(((1-(5-(trifluoromethyl)-6-(cis-4-(trifluoromethyl)cyclo-hexyl)oxy)quinolin-2-yl)ethyl)amino)cyclobutanecarboxylic acid], the IC50 was ≤ 250 nM. As to `O=C(NCCCP(=O)(O)O)c1ccc2c(C(F)(F)F)c(OCc3cc(Cl)cc(Cl)c3)ccc2c1` [Example 18, (3-(6-((3,5-dichlorobenzyl)oxy)-5-(trifluoromethyl)-2-naphthamido)propyl)phosphonic acid], the IC50 was ≤ 100 nM.
